pIC50: −log10 of the molar value.
Biological target: T1, Recombinant human H-PGDS (Homo sapiens, UniProt O60760)
T1 construct: made in house; host or cells: E. coli
Assay: H-PGDS inhibitory activity (prostaglandin D2 production from prostaglandin H2, measured by LC-MS/MS)
Assay type: biochemical
Conditions: recombinant human H-PGDS 1.0 nM expressed in E. coli; prostaglandin H2 25 μM; preincubated 15 minutes on ice, reacted on ice for 1 minute; concentration that inhibits prostaglandin D2 production by 50%
In short: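 Recombinant human H-PGDS (E. coli-expressed, 1.0 nM final) preincubated with compound 15 min on ice in 20 mM Tris-HCl pH 8.0, 2 mM MgCl2, 2 mM GSH, 0.5 mg/mL γ-globulin. Reaction with 25 µM PGH2 run 1 min on ice, stopped with FeCl2/citric acid, PGD2 quantified by LC-MS/MS. Activity expressed as % of DMSO control after subtracting non-enzymatic PGD2.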

T1 sequence (O60760 whole entry): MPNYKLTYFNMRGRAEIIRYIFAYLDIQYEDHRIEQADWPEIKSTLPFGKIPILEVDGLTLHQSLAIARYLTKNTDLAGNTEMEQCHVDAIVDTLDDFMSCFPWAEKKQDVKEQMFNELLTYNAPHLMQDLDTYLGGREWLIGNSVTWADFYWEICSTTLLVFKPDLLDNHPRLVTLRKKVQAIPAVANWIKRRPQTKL

Structure (SMILES) | pIC50
CCCCn1nnnc1N1CCC(NC(=O)c2ccc(-c3nccc4occc34)cc2)CC1 [Example 241, N-[1-(1-butyl-1H-tetrazol-5-yl)piperidin-4-yl]-4-(furo[3,2-c]pyridin-4-yl)benzamide] | 8.57
COCCNC(=O)c1ccc(-c2nccc3[nH]ccc23)cc1 [Example 23, N-(2-methoxyethyl)-4-(1H-pyrrolo[3,2-c]pyridin-4-yl)benzamide] | 9.10
Cc1cc2[nH]ccc2c(-c2ccc(C(=O)N[C@H]3CC[C@H](C(C)(C)O)CC3)cc2)n1 [Example 338, N-[trans-4-(2-hydroxypropan-2-yl)cyclohexyl]-4-(6-methyl-1H-pyrrolo[3,2-c]pyridin-4-yl)benzamide] | 8.62
CC(C)(O)[C@H]1CC[C@H](NC(=O)c2ccc(-c3nc(N)cc4occc34)cc2)CC1 [Example 315, 4-(6-aminofuro[3,2-c]pyridin-4-yl)-N-[trans-4-(2-hydroxypropan-2-yl)cyclohexyl]benzamide] | 8.59
CC(C)(O)[C@H]1CC[C@H](NC(=O)c2ccc(-c3nc(C(N)=O)cc4occc34)cc2)CC1 [Example 318, 4-(4-{[trans-4-(2-hydroxypropan-2-yl)cyclohexyl]carbamoyl}phenyl)furo[3,2-c]pyridine-6-carboxamide] | 6.44
Cc1cc(C(=O)N[C@H]2CC[C@H](C(C)(C)O)CC2)ccc1-c1nccc2occc12 [Example 132, 4-(furo[3,2-c]pyridin-4-yl)-N-[trans-4-(2-hydroxypropan-2-yl)cyclohexyl]-3-methylbenzamide] | 7.13
O=C(NCc1cccc(OC(F)F)c1)c1ccc(-c2nccc3[nH]ccc23)cc1 [Example 35, N-[3-(difluoromethoxy)benzyl]-4-(1H-pyrrolo[3,2-c]pyridin-4-yl)benzamide] | 8.80

The remaining lines, values ahead:

pIC50 | Structure (SMILES)
8.49 | Cn1nccc1N1CCC(NC(=O)c2ccc(-c3nccc4occc34)cc2)CC1 [Example 250, 4-(furo[3,2-c]pyridin-4-yl)-N-[1-(1-methyl-1H-pyrazol-5-yl)piperidin-4-yl]benzamide]
8.82 | NC(=O)c1cnc(N2CC[C@H](NC(=O)c3ccc(-c4nccc5occc45)cc3)C2)nc1 [Example 202, (S)-2-(3-[4-(furo[3,2-c]pyridin-4-yl)benzamide]pyrrolidin-1-yl)pyrimidine-5-carboxamide]
8.74 | O=C(NC1CCN(c2ccc(F)cn2)CC1)c1ccc(-c2nccc3occc23)cc1 [Example 149, N-[1-(5-fluoropyridin-2-yl)piperidin-4-yl]-4-(furo[3,2-c]pyridin-4-yl)benzamide]
9.05 | NC(=O)C12CCC(NC(=O)c3ccc(-c4nccc5occc45)cc3)(CC1)CC2 [Example 352, 4-[4-(furo[3,2-c]pyridin-4-yl)benzamide]bicyclo[2.2.2]octane-1-carboxamide]
7.17 | O=C(NC(CO)c1ccccn1)c1ccc(-c2nccc3occc23)cc1 (stereo not shown) [Example 220, 4-(furo[3,2-c]pyridin-4-yl)-N-[2-hydroxy-1-(pyridin-2-yl)ethyl]benzamide]
8.51 | O=C(N[C@@H]1CC[C@H](O)C1)c1ccc(-c2nccc3occc23)cc1 (relative stereo) [Example 267, 4-(furo[3,2-c]pyridin-4-yl)-N-(cis-3-hydroxycyclopenthyl)benzamide]
8.77 | O=C(NCc1ccccc1Cl)c1ccc(-c2nccc3[nH]ccc23)cc1 [Example 56, N-(2-chlorobenzyl)-4-(1H-pyrrolo[3,2-c]pyridin-4-yl)benzamide]
8.82 | O=C(N[C@H]1CCN(c2ccnc(F)c2)C1)c1ccc(-c2nccc3occc23)cc1 [Example 196, (S)-N-[1-(2-fluoropyridin-4-yl)pyrrolidin-3-yl]-4-(furo[3,2-c]pyridin-4-yl)benzamide]
8.74 | NS(=O)(=O)c1ccc(NC(=O)c2ccc(-c3nccc4occc34)cc2)cc1 [Example 102, 4-(furo[3,2-c]pyridin-4-yl)-N-(4-sulfamoylphenyl) benzamide]

From patent US20230339937A1, “CONDENSED RING COMPOUNDS THAT INHIBIT H-PGDS” (SATO PHARMACEUTICAL CO., LTD., priority 2020, published 2023)
